The values that follow come from ChEMBL document CHEMBL4184139, “Adamantyl- and other polycyclic cage-based conjugates of desferrioxamine B (DFOB) for treating iron-mediated toxicity in cell models of Parkinson's disease” (Bioorg Med Chem Lett, 2017).

Active and inactive are the calls of the source. The calls are words filed in the database; no cut-off is given here.

The test system of one data set is Astrocyte. As to the kind of experiment: Cytoprotection against H2O2-induced cell death in BSO pretreated C57BL6/J mouse brain primary astrocytes assessed as increase in cell viability at 10 uM pretreated for 2 hrs followed by H2O2 addition measured after 24 hrs by MTT assay. It counts as functional, cell-based.
Conditions: not given
Take `CC(=O)N(O)CCCCCNC(=O)CCC(=O)N(O)CCCCCNC(=O)CCC(=O)N(O)CCCCCNC(=O)C12CC3(C)CC(C)(CC(C)(C3)C1)C2`: the outcome was Active.

The test system of a further data set is SK-N-BE(2)-M17. As to the kind of experiment: Cytotoxicity against human SK-N-BE(2)-M17 cells at 100 uM 24 hrs by LDH release assay. The conditions noted are these: sk-n-be(2)-m17, 24 h. It counts as cell-based.
Turning to `CC(=O)N(O)CCCCCNC(=O)CCC(=O)N(O)CCCCCNC(=O)CCC(=O)N(O)CCCCCNC(=O)C1CCCCC1`, the Activity entry was “Non-Toxic”.

Consider `CC(=O)N(O)CCCCCNC(=O)CCC(=O)N(O)CCCCCNC(=O)CCC(=O)N(O)CCCCCNC(=O)C12CC3(C)CC(C)(CC(C)(C3)C1)C2`, for which the Activity result is “Non-Toxic”.

For the next data set, the system named is SK-N-BE(2)-M17. As to the kind of experiment: Cytoprotection against PQ-induced cell death in human SK-N-BE(2)-M17 cells assessed as increase in cell viability at 100 uM pretreated for 2 hrs followed by 1 mM PQ addition measured after 24 hrs by MTT assay. It counts as functional, cell-based.
Conditions: not given
On to `CC(=O)N(O)CCCCCNC(=O)CCC(=O)N(O)CCCCCNC(=O)CCC(=O)N(O)CCCCCNC(=O)C1CCCCC1`, for which the result was inactive.

On to `CC(=O)N(O)CCCCCNC(=O)CCC(=O)N(O)CCCCCNC(=O)CCC(=O)N(O)CCCCCNC(=O)C12CC3(C)CC(C)(CC(C)(C3)C1)C2`, for which the result was Active.

The next data set deals with SK-N-BE(2)-M17. As to the kind of experiment: Cytoprotection against PQ-induced cell death in human SK-N-BE(2)-M17 cells assessed as increase in cell viability at 100 uM pretreated for 2 hrs followed by 1 mM PQ addition measured after 24 hrs by LDH assay. It counts as functional, cell-based.
Conditions: not given
In the case of `CC(=O)N(O)CCCCCNC(=O)CCC(=O)N(O)CCCCCNC(=O)CCC(=O)N(O)CCCCCNC(=O)C1CCCCC1`, the outcome was inactive.

Regarding `CC(=O)N(O)CCCCCNC(=O)CCC(=O)N(O)CCCCCNC(=O)CCC(=O)N(O)CCCCCNC(=O)C12CC3(C)CC(C)(CC(C)(C3)C1)C2`, the result was Active.

For another data set, the system named is SK-N-BE(2)-M17. As to the kind of experiment: Cytoprotection against PQ-induced cell death in human SK-N-BE(2)-M17 cells assessed as increase in cell viability at 100 uM treated post 200 uM Fecl3 and 1 mM PQ treatment measured after 24 hrs by MTT assay. It counts as functional, cell-based.
Conditions: not given
Regarding `CC(=O)N(O)CCCCCNC(=O)CCC(=O)N(O)CCCCCNC(=O)CCC(=O)N(O)CCCCCNC(=O)C12CC3(C)CC(C)(CC(C)(C3)C1)C2`, the result was Active.

The next data set relates to Astrocyte. As to the kind of experiment: Cytoprotection against H2O2-induced cell death in BSO pretreated C57BL6/J mouse brain primary astrocytes assessed as increase in cell viability at 10 uM pretreated for 2 hrs followed by H2O2 addition measured after 24 hrs by LDH release assay.
Conditions: not given
It counts as functional, cell-based.
Regarding `CC(=O)N(O)CCCCCNC(=O)CCC(=O)N(O)CCCCCNC(=O)CCC(=O)N(O)CCCCCNC(=O)C12CC3(C)CC(C)(CC(C)(C3)C1)C2`, the result was Active.

Test system in another data set: not listed separately
As to the kind of experiment: Binding affinity to Fe3+ assessed as change in retention time for compound-Fe3+ complex by RP-HPLC analysis relative to free ligand.
Conditions: not given
With `CC(=O)N(O)CCCCCNC(=O)CCC(=O)N(O)CCCCCNC(=O)CCC(=O)N(O)CCCCCNC(=O)C1CCCCC1`, the Retention time is -0.04 min.

`CC(=O)N(O)CCCCCNC(=O)CCC(=O)N(O)CCCCCNC(=O)CCC(=O)N(O)CCCCCNC(=O)C12CC3(C)CC(C)(CC(C)(C3)C1)C2`: the Retention time turned out to be 1.85 min.

Test system in a further data set: not listed separately
As to the kind of experiment: Octanol-water partition coefficient, log P of the compound at 1 mg by RP-HPLC analysis. It counts as physicochemical.
Conditions: not given
Compound `CC(=O)N(O)CCCCCNC(=O)CCC(=O)N(O)CCCCCNC(=O)CCC(=O)N(O)CCCCCNC(=O)C1CCCCC1` gave a log partition coefficient (logP) of 0.96.

In the case of `CC(=O)N(O)CCCCCNC(=O)CCC(=O)N(O)CCCCCNC(=O)CCC(=O)N(O)CCCCCNC(=O)C12CC3(C)CC(C)(CC(C)(C3)C1)C2`, the logP came out at 2.54.

A further data set concerns SK-N-BE(2)-M17. As to the kind of experiment: Cytotoxicity against human SK-N-BE(2)-M17 cells at 100 uM 24 hrs by MTT assay. It counts as cell-based. Conditions: sk-n-be(2)-m17, 24 h.
Turning to `CC(=O)N(O)CCCCCNC(=O)CCC(=O)N(O)CCCCCNC(=O)CCC(=O)N(O)CCCCCNC(=O)C1CCCCC1`, the Activity result was “Non-Toxic”.

Take `CC(=O)N(O)CCCCCNC(=O)CCC(=O)N(O)CCCCCNC(=O)CCC(=O)N(O)CCCCCNC(=O)C12CC3(C)CC(C)(CC(C)(C3)C1)C2`: the Activity entry is on record as “Non-Toxic”.

In a further data set the test system is SK-N-BE(2)-M17. As to the kind of experiment: Cytoprotection against H2O2-induced cell death in human SK-N-BE(2)-M17 cells assessed as increase in cell viability at 100 uM treated 2 hrs post 0.8 mM H2O2 treatment measured after 24 hrs by MTT assay. It counts as functional, cell-based.
Conditions: not given
In the case of `CC(=O)N(O)CCCCCNC(=O)CCC(=O)N(O)CCCCCNC(=O)CCC(=O)N(O)CCCCCNC(=O)C1CCCCC1`, the result was inactive.

Turning to `CC(=O)N(O)CCCCCNC(=O)CCC(=O)N(O)CCCCCNC(=O)CCC(=O)N(O)CCCCCNC(=O)C12CC3(C)CC(C)(CC(C)(C3)C1)C2`, the outcome was Active.

A further data set deals with SK-N-BE(2)-M17. Nature of the data set: Cytoprotection against PQ-induced cell death in human SK-N-BE(2)-M17 cells assessed as increase in cell viability at 100 uM treated post 200 uM Fecl3 and 1 mM PQ treatment measured after 24 hrs by LDH assay. It counts as functional, cell-based.
Conditions: not given
`CC(=O)N(O)CCCCCNC(=O)CCC(=O)N(O)CCCCCNC(=O)CCC(=O)N(O)CCCCCNC(=O)C12CC3(C)CC(C)(CC(C)(C3)C1)C2`: the result was Active.

Test system in the next data set: not listed separately
Nature of the data set: Binding affinity to Fe3+ assessed as [M+H]+ adduct formation by LC-MS/MS analysis.
Conditions: not given
On to `CC(=O)N(O)CCCCCNC(=O)CCC(=O)N(O)CCCCCNC(=O)CCC(=O)N(O)CCCCCNC(=O)C1CCCCC1`, for which the result was Active.

Consider `CC(=O)N(O)CCCCCNC(=O)CCC(=O)N(O)CCCCCNC(=O)CCC(=O)N(O)CCCCCNC(=O)C12CC3(C)CC(C)(CC(C)(C3)C1)C2`, for which the result was Active.

The subject of another data set is SK-N-BE(2)-M17. Nature of the data set: Cytoprotection against PQ-induced cell death in human SK-N-BE(2)-M17 cells assessed as increase in cell viability treated 2 hrs post 2 mM PQ treatment measured after 24 hrs by MTT assay. It counts as functional, cell-based.
Conditions: not given
With `CC(=O)N(O)CCCCCNC(=O)CCC(=O)N(O)CCCCCNC(=O)CCC(=O)N(O)CCCCCNC(=O)C12CC3(C)CC(C)(CC(C)(C3)C1)C2`, the concentration for a half-maximal effect (EC50) is 3.4 µM.

In a further data set the test system is SK-N-BE(2)-M17. As to the kind of experiment: Cytoprotection against PQ-induced cell death in human SK-N-BE(2)-M17 cells assessed as increase in cell viability at 100 uM treated 2 hrs post 2 mM PQ treatment measured after 24 hrs by LDH assay. It counts as functional, cell-based.
Conditions: not given
In the case of `CC(=O)N(O)CCCCCNC(=O)CCC(=O)N(O)CCCCCNC(=O)CCC(=O)N(O)CCCCCNC(=O)C1CCCCC1`, the outcome was inactive.

The subject of another data set is SK-N-BE(2)-M17. As to the kind of experiment: Cytoprotection against H2O2-induced cell death in human SK-N-BE(2)-M17 cells assessed as increase in cell viability at 100 uM treated 2 hrs post 0.8 mM H2O2 treatment measured after 24 hrs by LDH assay. It counts as functional, cell-based.
Conditions: not given
In the case of `CC(=O)N(O)CCCCCNC(=O)CCC(=O)N(O)CCCCCNC(=O)CCC(=O)N(O)CCCCCNC(=O)C1CCCCC1`, the result was inactive.

A further data set relates to SK-N-BE(2)-M17. Nature of the data set: Cytoprotection against H2O2-induced cell death in human SK-N-BE(2)-M17 cells assessed as increase in cell viability at 100 uM pretreated for 2 hrs followed by 1 mM H2O2 addition measured after 24 hrs by MTT assay. It counts as functional, cell-based.
Conditions: not given
Regarding `CC(=O)N(O)CCCCCNC(=O)CCC(=O)N(O)CCCCCNC(=O)CCC(=O)N(O)CCCCCNC(=O)C1CCCCC1`, the outcome was inactive.

In the case of `CC(=O)N(O)CCCCCNC(=O)CCC(=O)N(O)CCCCCNC(=O)CCC(=O)N(O)CCCCCNC(=O)C12CC3(C)CC(C)(CC(C)(C3)C1)C2`, the outcome was Active.

A further data set deals with SK-N-BE(2)-M17. As to the kind of experiment: Cytoprotection against PQ-induced cell death in human SK-N-BE(2)-M17 cells assessed as increase in cell viability at 100 uM treated 2 hrs post 2 mM PQ treatment measured after 24 hrs by MTT assay. It counts as functional, cell-based.
Conditions: not given
Regarding `CC(=O)N(O)CCCCCNC(=O)CCC(=O)N(O)CCCCCNC(=O)CCC(=O)N(O)CCCCCNC(=O)C1CCCCC1`, the outcome was inactive.

Take `CC(=O)N(O)CCCCCNC(=O)CCC(=O)N(O)CCCCCNC(=O)CCC(=O)N(O)CCCCCNC(=O)C12CC3(C)CC(C)(CC(C)(C3)C1)C2`: the result was Active.

Test system in a further data set: not listed separately
As to the kind of experiment: Binding affinity to Fe3+ assessed as [M+2H]+ adduct formation by LC-MS/MS analysis.
Conditions: not given
Turning to `CC(=O)N(O)CCCCCNC(=O)CCC(=O)N(O)CCCCCNC(=O)CCC(=O)N(O)CCCCCNC(=O)C1CCCCC1`, the result was Active.

Take `CC(=O)N(O)CCCCCNC(=O)CCC(=O)N(O)CCCCCNC(=O)CCC(=O)N(O)CCCCCNC(=O)C12CC3(C)CC(C)(CC(C)(C3)C1)C2`: the outcome was Active.

For a further data set, the system named is SK-N-BE(2)-M17. Nature of the data set: Cytoprotection against H2O2-induced cell death in human SK-N-BE(2)-M17 cells assessed as increase in cell viability at 100 uM pretreated for 2 hrs followed by 1 mM H2O2 addition measured after 24 hrs by LDH assay.
Conditions: not given
It counts as functional, cell-based.
With `CC(=O)N(O)CCCCCNC(=O)CCC(=O)N(O)CCCCCNC(=O)CCC(=O)N(O)CCCCCNC(=O)C1CCCCC1`, the result was inactive.

For the compound `CC(=O)N(O)CCCCCNC(=O)CCC(=O)N(O)CCCCCNC(=O)CCC(=O)N(O)CCCCCNC(=O)C12CC3(C)CC(C)(CC(C)(C3)C1)C2`, the result was Active.

Test system in a further data set: not listed separately
As to the kind of experiment: Binding affinity to Fe3+ in ferric ammonium citrate loaded C57BL6/J mouse brain primary astrocytes assessed as iron depletion at 100 uM treated 2 hrs post 125 uM FAC loading measured after 2 hrs by ICP-MS analysis. It counts as cell-based.
Conditions: not given
`CC(=O)N(O)CCCCCNC(=O)CCC(=O)N(O)CCCCCNC(=O)CCC(=O)N(O)CCCCCNC(=O)C1CCCCC1`: the result was Active.
